Values of other authors, collected in patent US4937073A, “Reformed vetiver oil and vetiverol, process for preparing the same, and perfumery composition comprising the same” (Kao Corporation, priority 1988, dated 1990).
Where two headings read alike, the source gives them in different places.

## O=C(O)C(O)C(O)C(=O)O (centres unmarked) [tartaric acid]
  pKa: 2.82
Listed as Tartaric acid
  pKa: 1.04
